# Laboratory results reported in PubChem BioAssay AID1259407 (Chemical Carcinogenesis Research Information System (CCRIS), 2018).
# Activity calls are given as the source filed them. How the calls were made is not given here.
# Test system: CCRIS mutagenicity, Ames/micronucleus/aberration tests
# Assay: CCRIS mutagenicity studies
# [1] = Test System: AMES SALMONELLA TYPHIMURIUM, Strain/Indicator: TA98, Metabolic Activation: RAT, LIVER, S-9, AROCLOR 1254, Method: STANDARD PLATE
# [2] = Test System: AMES SALMONELLA TYPHIMURIUM, Strain/Indicator: TA100, Metabolic Activation: NONE, Method: STANDARD PLATE
# [3] = Test System: AMES SALMONELLA TYPHIMURIUM, Strain/Indicator: TA100, Metabolic Activation: RAT, LIVER, S-9, AROCLOR 1254, Method: STANDARD PLATE
# [4] = Test System: AMES SALMONELLA TYPHIMURIUM, Strain/Indicator: TA1537, Metabolic Activation: RAT, LIVER, S-9, AROCLOR 1254, Method: STANDARD PLATE
# [5] = Test System: AMES SALMONELLA TYPHIMURIUM, Strain/Indicator: TA98, Metabolic Activation: NONE, Method: PREINCUBATION
# [6] = Test System: AMES SALMONELLA TYPHIMURIUM, Strain/Indicator: TA100, Metabolic Activation: NONE, Method: PREINCUBATION
smiles,measurement,setting,value
Cc1ccc(C(=O)O[C@@H](C(=O)O)[C@@H](OC(=O)c2ccc(C)cc2)C(=O)O)cc1 (tested in a mixture with another compound),mutagenic call,[1],active; positive
same,mutagenic call,[2],inactive; negative
same,mutagenic call,[3],active; positive
same,mutagenic call,[4],active; positive
COC(=O)[C@@H]1[C@H]2C[C@H]3c4[nH]c5ccccc5c4CCN3C[C@@H]2CC[C@@H]1O,mutagenic call,"Test System: Mouse lymphoma, Strain/Indicator: L5178Y (tk+/tk-), Metabolic Activation: None, Method: Suspension/plate",inactive; inconclusive (previous evaluation negative)
same,mutagenic call,"Test System: Mouse lymphoma, Strain/Indicator: L5178Y (tk+/tk-), Metabolic Activation: Rat, Liver, S-9, Aroclor 1254, Method: Suspension/plate",inactive; inconclusive (previous evaluation negative)
OCCN(CCO)CCO,mutagenic call,"End Point: IN VITRO CHROMOSOMAL ABERRATIONS, Test System: CHINESE HAMSTER OVARY CELLS, Metabolic Activation: NONE",inactive; negative
same,mutagenic call,"End Point: IN VITRO CHROMOSOMAL ABERRATIONS, Test System: CHINESE HAMSTER OVARY CELLS, Metabolic Activation: RAT, LIVER, S-9, AROCLOR 1254",inactive; negative
same,mutagenic call,"End Point: IN VITRO CHROMOSOMAL ABERRATIONS, Test System: CHO, Metabolic Activation: NONE",inactive; negative
same,mutagenic call,"End Point: IN VITRO CHROMOSOMAL ABERRATIONS, Test System: CHO, Metabolic Activation: RAT, LIVER, S-9, AROCLOR 1254",inactive; negative
same,mutagenic call,"End Point: IN VIVO MICRONUCLEUS, Test System: POLYCHROMATIC BLOOD LYMPHOCYTES, Species: MOUSE, Strain/Sex: B6C3F1/MALE, FEMALE, Route: DERMAL",inactive; negative
same,mutagenic call,"Test System: AMES SALMONELLA TYPHIMURIUM, Strain/Indicator: TA98, Metabolic Activation: HAMSTER LIVER S-9, AROCLOR-1254 (10%), Method: PREINCUBATION",inactive; negative
same,mutagenic call,"Test System: AMES SALMONELLA TYPHIMURIUM, Strain/Indicator: TA98, Metabolic Activation: HAMSTER, LIVER, S-9 (10%), AROCLOR 1254, Method: PREINCUBATION",inactive; negative
same,mutagenic call,[5],inactive; negative
same,mutagenic call,"Test System: AMES SALMONELLA TYPHIMURIUM, Strain/Indicator: TA98, Metabolic Activation: RAT LIVER S-9, AROCLOR-1254 (10%), Method: PREINCUBATION",inactive; negative
same,mutagenic call,"Test System: AMES SALMONELLA TYPHIMURIUM, Strain/Indicator: TA98, Metabolic Activation: RAT, LIVER, S-9 (10%), AROCLOR 1254, Method: PREINCUBATION",inactive; negative
same,mutagenic call,"Test System: AMES SALMONELLA TYPHIMURIUM, Strain/Indicator: TA100, Metabolic Activation: HAMSTER LIVER S-9, AROCLOR-1254 (10%), Method: PREINCUBATION",inactive; negative
same,mutagenic call,"Test System: AMES SALMONELLA TYPHIMURIUM, Strain/Indicator: TA100, Metabolic Activation: HAMSTER, LIVER, S-9 (10%), AROCLOR 1254, Method: PREINCUBATION",inactive; negative
same,mutagenic call,[6],inactive; negative
same,mutagenic call,"Test System: AMES SALMONELLA TYPHIMURIUM, Strain/Indicator: TA100, Metabolic Activation: RAT LIVER S-9, AROCLOR-1254 (10%), Method: PREINCUBATION",inactive; negative
same,mutagenic call,"Test System: AMES SALMONELLA TYPHIMURIUM, Strain/Indicator: TA100, Metabolic Activation: RAT, LIVER, S-9 (10%), AROCLOR 1254, Method: PREINCUBATION",inactive; negative
same,mutagenic call,"Test System: AMES SALMONELLA TYPHIMURIUM, Strain/Indicator: TA1535, Metabolic Activation: HAMSTER LIVER S-9, AROCLOR-1254 (10%), Method: PREINCUBATION",inactive; negative
same,mutagenic call,"Test System: AMES SALMONELLA TYPHIMURIUM, Strain/Indicator: TA1535, Metabolic Activation: HAMSTER, LIVER, S-9 (10%), AROCLOR 1254, Method: PREINCUBATION",inactive; negative
same,mutagenic call,"Test System: AMES SALMONELLA TYPHIMURIUM, Strain/Indicator: TA1535, Metabolic Activation: NONE, Method: PREINCUBATION",inactive; negative
same,mutagenic call,"Test System: AMES SALMONELLA TYPHIMURIUM, Strain/Indicator: TA1535, Metabolic Activation: RAT LIVER S-9, AROCLOR-1254 (10%), Method: PREINCUBATION",inactive; negative
same,mutagenic call,"Test System: AMES SALMONELLA TYPHIMURIUM, Strain/Indicator: TA1535, Metabolic Activation: RAT, LIVER, S-9 (10%), AROCLOR 1254, Method: PREINCUBATION",inactive; negative
same,mutagenic call,"Test System: AMES SALMONELLA TYPHIMURIUM, Strain/Indicator: TA1537, Metabolic Activation: HAMSTER LIVER S-9, AROCLOR-1254 (10%), Method: PREINCUBATION",inactive; negative
same,mutagenic call,"Test System: AMES SALMONELLA TYPHIMURIUM, Strain/Indicator: TA1537, Metabolic Activation: HAMSTER, LIVER, S-9 (10%), AROCLOR 1254, Method: PREINCUBATION",inactive; negative
same,mutagenic call,"Test System: AMES SALMONELLA TYPHIMURIUM, Strain/Indicator: TA1537, Metabolic Activation: NONE, Method: PREINCUBATION",inactive; negative
same,mutagenic call,"Test System: AMES SALMONELLA TYPHIMURIUM, Strain/Indicator: TA1537, Metabolic Activation: RAT LIVER S-9, AROCLOR-1254 (10%), Method: PREINCUBATION",inactive; negative
same,mutagenic call,"Test System: AMES SALMONELLA TYPHIMURIUM, Strain/Indicator: TA1537, Metabolic Activation: RAT, LIVER, S-9 (10%), AROCLOR 1254, Method: PREINCUBATION",inactive; negative
O=C(O)C(Cl)Br (configuration not stated),mutagenic call,"End Point: In vivo micronucleus, Test System: Peripheral blood normochromatic erythrocytes, Species: Mouse, Strain/Sex: B6C3F1/Female, Route: Oral",inactive; negative
same,mutagenic call,"End Point: In vivo micronucleus, Test System: Peripheral blood normochromatic erythrocytes, Species: Mouse, Strain/Sex: B6C3F1/Male, Route: Oral",inactive; negative
same,mutagenic call,[5],inactive; negative
same,mutagenic call,"Test System: AMES SALMONELLA TYPHIMURIUM, Strain/Indicator: TA98, Metabolic Activation: RAT, LIVER, S-9, PHENOBARBITAL AND 5,6-BENZOFLAVONE, Method: PREINCUBATION",inactive; negative
same,mutagenic call,[6],active; positive
same,mutagenic call,"Test System: AMES SALMONELLA TYPHIMURIUM, Strain/Indicator: TA100, Metabolic Activation: RAT, LIVER, S-9, PHENOBARBITAL AND 5,6-BENZOFLAVONE, Method: PREINCUBATION",active; positive
same,mutagenic call,"Test System: Ames Salmonella typhimurium, Strain/Indicator: TA98, Metabolic Activation: Hamster, Liver, S9, Aroclor 1254, Method: Preincubation",inactive; negative
same,mutagenic call,"Test System: Ames Salmonella typhimurium, Strain/Indicator: TA98, Metabolic Activation: None, Method: Preincubation",inactive; negative
same,mutagenic call,"Test System: Ames Salmonella typhimurium, Strain/Indicator: TA98, Metabolic Activation: Rat, Liver, S9, Aroclor 1254, Method: Preincubation",inactive; negative
same,mutagenic call,"Test System: Ames Salmonella typhimurium, Strain/Indicator: TA100, Metabolic Activation: Hamster, Liver, S9, Aroclor 1254 (30%), Method: Preincubation",active; positive
same,mutagenic call,"Test System: Ames Salmonella typhimurium, Strain/Indicator: TA100, Metabolic Activation: Rat, Liver, S9, Aroclor 1254 (10%), Method: Preincubation",active; positive
same,mutagenic call,"Test System: Ames Salmonella typhimurium, Strain/Indicator: TA100, Metabolic Activation: Rat, Liver, S9, Aroclor 1254 (30%), Method: Preincubation",active; positive
same,mutagenic call,"Test System: E. coli, Strain/Indicator: WP2 uvrA/pKM101, Metabolic Activation: None, Method: Preincubation",inactive; negative
same,mutagenic call,"Test System: E. coli, Strain/Indicator: WP2 uvrA/pKM101, Metabolic Activation: Rat, Liver, S9, Aroclor 1254 (10%), Method: Preincubation",inactive; negative
COc1c(Cl)cc2c(c1OC)N(C)[C@@H]1N3C(=O)[C@@]4(C)SS[C@@]3(C(=O)N4C)[C@H](O)[C@]21O,mutagenic call,"Test System: AMES SALMONELLA TYPHIMURIUM, Strain/Indicator: TA98, Metabolic Activation: NONE, Method: STANDARD PLATE",inactive; negative
same,mutagenic call,[1],inactive; negative
same,mutagenic call,[2],inactive; negative
same,mutagenic call,[3],inactive; negative
same,mutagenic call,"Test System: AMES SALMONELLA TYPHIMURIUM, Strain/Indicator: TA102, Metabolic Activation: NONE, Method: STANDARD PLATE",inactive; negative
same,mutagenic call,"Test System: AMES SALMONELLA TYPHIMURIUM, Strain/Indicator: TA102, Metabolic Activation: RAT, LIVER, S-9, AROCLOR 1254, Method: STANDARD PLATE",inactive; negative
same,mutagenic call,"Test System: AMES SALMONELLA TYPHIMURIUM, Strain/Indicator: TA1537, Metabolic Activation: NONE, Method: STANDARD PLATE",inactive; negative
same,mutagenic call,[4],inactive; negative
CCCCN(CC(O)c1ccc(O)cc1)N=O (configuration not stated),mutagenic call,[5],inactive; negative
same,mutagenic call,"Test System: AMES SALMONELLA TYPHIMURIUM, Strain/Indicator: TA98, Method: PREINCUBATION",inactive; negative
same,mutagenic call,[6],inactive; negative
same,mutagenic call,"Test System: AMES SALMONELLA TYPHIMURIUM, Strain/Indicator: TA100, Method: PREINCUBATION",inactive; negative
